Measured values taken from ChEMBL document CHEMBL1208702, “Use of 2-[(18)F]fluoroethylazide for the Staudinger ligation - Preparation and characterisation of GABA(A) receptor binding 4-quinolones” (Bioorg Med Chem Lett, 2010).

Tests used:
Spleen [1] = assay: Biodistribution in iv dosed Sprague-Dawley rats spleen after 10 mins by gamma counter; format: ADME, organism-based; settings: rat, in vivo
Lung [2] = assay: Biodistribution in iv dosed Sprague-Dawley rats lung after 60 mins by gamma counter; format: ADME, organism-based; settings: rat, in vivo, 1 h
[3] = Biodistribution in iv dosed Sprague-Dawley rats bladder and urine after 10 mins by gamma counter; format: ADME, organism-based; settings: rat, in vivo
[4] = Drug uptake in low GABAA expression areas of Wistar rat brain prefrontal cortex at 0.1 MBq/ml after 60 mins by autoradiographic analysis; format: ADME, tissue-based; settings: in vivo, 1 h
[5] = Biodistribution in iv dosed Sprague-Dawley rats fat after 60 mins by gamma counter; format: ADME, organism-based, Adipose tissue; settings: rat, in vivo, 1 h
[6] = Biodistribution in iv dosed Sprague-Dawley rats stomach after 10 mins by gamma counter; format: ADME, organism-based; settings: rat, in vivo
Spleen [7] = assay: Biodistribution in iv dosed Sprague-Dawley rats spleen after 30 mins by gamma counter; format: ADME, organism-based; settings: rat, in vivo, 0.5 h
[8] = Drug uptake in Wistar rat brain thalamus/striatum cortex at 0.1 MBq/ml after 60 mins by autoradiographic analysis; format: ADME, tissue-based; settings: in vivo, 1 h
[9] = Biodistribution in iv dosed Sprague-Dawley rats stomach after 60 mins by gamma counter; format: ADME, organism-based; settings: rat, in vivo, 1 h
[10] = Biodistribution in iv dosed Sprague-Dawley rats large intestine after 60 mins by gamma counter; format: ADME, organism-based; settings: rat, in vivo, 1 h
[11] = Biodistribution in iv dosed Sprague-Dawley rats stomach after 0.5 min by gamma counter; format: ADME, organism-based; settings: rat, in vivo
Brain [12] = assay: Biodistribution in iv dosed Sprague-Dawley rats brain after 2 mins by gamma counter; format: ADME, organism-based; settings: rat, in vivo
[13] = Biodistribution in iv dosed Sprague-Dawley rats small intestine after 60 mins by gamma counter; format: ADME, organism-based; settings: rat, in vivo, 1 h
Muscle tissue [14] = assay: Biodistribution in iv dosed Sprague-Dawley rats muscle after 30 mins by gamma counter; format: ADME, organism-based; settings: rat, in vivo, 0.5 h
Brain [15] = assay: Biodistribution in iv dosed Sprague-Dawley rats brain after 0.5 min by gamma counter; format: ADME, organism-based; settings: rat, in vivo
[16] = Biodistribution in iv dosed Sprague-Dawley rats large intestine after 30 mins by gamma counter; format: ADME, organism-based; settings: rat, in vivo, 0.5 h
[17] = Biodistribution in iv dosed Sprague-Dawley rats large intestine after 10 mins by gamma counter; format: ADME, organism-based; settings: rat, in vivo
Blood [18] = assay: Biodistribution in iv dosed Sprague-Dawley rats blood after 2 mins by gamma counter; format: ADME, organism-based; settings: rat, in vivo
Blood [19] = assay: Biodistribution in iv dosed Sprague-Dawley rats blood after 0.5 min by gamma counter; format: ADME, organism-based; settings: rat, in vivo
[20] = Biodistribution in iv dosed Sprague-Dawley rats small intestine after 0.5 min by gamma counter; format: ADME, organism-based; settings: rat, in vivo
Muscle tissue [21] = assay: Biodistribution in iv dosed Sprague-Dawley rats muscle after 2 mins by gamma counter; format: ADME, organism-based; settings: rat, in vivo
Bone [22] = assay: Biodistribution in iv dosed Sprague-Dawley rats bone after 30 mins by gamma counter; format: ADME, organism-based, Bone element; settings: rat, in vivo, 0.5 h
Bone [23] = assay: Biodistribution in iv dosed Sprague-Dawley rats bone after 10 mins by gamma counter; format: ADME, organism-based, Bone element; settings: rat, in vivo
Lung [24] = assay: Biodistribution in iv dosed Sprague-Dawley rats lung after 0.5 min by gamma counter; format: ADME, organism-based; settings: rat, in vivo
[25] = Drug uptake in high GABAA expression areas of Wistar rat brain thalamus/striatum cortex at 0.1 MBq/ml after 60 mins by autoradiographic analysis; format: ADME, tissue-based; settings: in vivo, 1 h
[26] = Biodistribution in iv dosed Sprague-Dawley rats stomach after 30 mins by gamma counter; format: ADME, organism-based; settings: rat, in vivo, 0.5 h
[27] = Biodistribution in iv dosed Sprague-Dawley rats fat after 2 mins by gamma counter; format: ADME, organism-based, Adipose tissue; settings: rat, in vivo
[28] = Biodistribution in iv dosed Sprague-Dawley rats large intestine after 2 mins by gamma counter; format: ADME, organism-based; settings: rat, in vivo
[29] = Biodistribution in iv dosed Sprague-Dawley rats bladder and urine after 0.5 min by gamma counter; format: ADME, organism-based; settings: rat, in vivo
Bone [30] = assay: Biodistribution in iv dosed Sprague-Dawley rats bone after 60 mins by gamma counter; format: ADME, organism-based, Bone element; settings: rat, in vivo, 1 h
[31] = Biodistribution in iv dosed Sprague-Dawley rats bladder and urine after 60 mins by gamma counter; format: ADME, organism-based; settings: rat, in vivo, 1 h
Bone [32] = assay: Biodistribution in iv dosed Sprague-Dawley rats bone after 0.5 min by gamma counter; format: ADME, organism-based, Bone element; settings: rat, in vivo
Kidney [33] = assay: Biodistribution in iv dosed Sprague-Dawley rats kidneys after 0.5 min by gamma counter; format: ADME, organism-based; settings: rat, in vivo
[34] = Biodistribution in iv dosed Sprague-Dawley rats large intestine after 0.5 min by gamma counter; format: ADME, organism-based; settings: rat, in vivo
Kidney [35] = assay: Biodistribution in iv dosed Sprague-Dawley rats kidneys after 10 mins by gamma counter; format: ADME, organism-based; settings: rat, in vivo
[36] = Biodistribution in iv dosed Sprague-Dawley rats bladder and urine after 2 mins by gamma counter; format: ADME, organism-based; settings: rat, in vivo
[37] = Biodistribution in iv dosed Sprague-Dawley rats fat after 10 mins by gamma counter; format: ADME, organism-based, Adipose tissue; settings: rat, in vivo
Liver = assay: Biodistribution in iv dosed Sprague-Dawley rats liver after 30 mins by gamma counter; format: ADME, organism-based; settings: rat, in vivo, 0.5 h

Drug uptake (Spleen [1]): 0.2 %ID
Drug uptake (Lung [2]): 0.1 %ID
Drug uptake [3]: 0.8 %ID
Drug uptake [4]: 76%
Drug uptake [5]: 0.3 %ID
Drug uptake [6]: 1 %ID
Drug uptake (Spleen [7]): 0.1 %ID
Drug uptake [8]: 60%
Drug uptake [9]: 0.2 %ID
Drug uptake [10]: 1.9 %ID
Drug uptake [11]: 0.8 %ID
Drug uptake (Brain [12]): 0.1 %ID
Drug uptake [13]: 74.5 %ID
Drug uptake (Muscle tissue [14]): 16.5 %ID
Drug uptake (Brain [15]): 0.1 %ID
Drug uptake [16]: 1.7 %ID
Drug uptake [17]: 1.7 %ID
Drug uptake (Blood [18]): 4.2 %ID
Drug uptake (Blood [19]): 8.7 %ID
Drug uptake [20]: 4.7 %ID
Drug uptake (Muscle tissue [21]): 47.3 %ID
Drug uptake (Bone [22]): 1.5 %ID
Drug uptake (Bone [23]): 1.7 %ID
Drug uptake (Lung [24]): 2.9 %ID
Drug uptake [25]: 76%
Drug uptake [26]: 0.5 %ID
Drug uptake [27]: 1.8 %ID
Drug uptake [28]: 1.3 %ID
Drug uptake [29]: 0.2 %ID
Drug uptake (Bone [30]): 1.4 %ID
Drug uptake [31]: 7.3 %ID
Drug uptake (Bone [32]): 3 %ID
Drug uptake (Kidney [33]): 4 %ID
Drug uptake [34]: 0.9 %ID
Drug uptake (Kidney [35]): 2.1 %ID
Drug uptake [36]: 0 %ID
Drug uptake [37]: 1.8 %ID
Drug uptake (Liver): 18.7 %ID
SMILES: O=C(NCC[18F])c1c[nH]c2ccc(Cc3ccccc3)cc2c1=O
